PMC5053523, “In Vitro Antibacterial Activity of Rhodanine Derivatives against Pathogenic Clinical Isolates” (PLoS ONE, 2016)
Like-named read-outs stand apart in the source and are kept apart here.

What was measured:
[1] = system: vancomycin resistant enterococci (VRE) E. faecalis; assay: Broth microdilution MIC/MBC, VRE E. faecalis; type: cell-based; settings: for MIC: read-out: MIC
[2] = system: vancomycin resistant enterococci (VRE); assay: Broth microdilution MIC50/MIC90, VRE panel; type: cell-based; settings: Enterococcus, 10 VRE strains
[3] = system: Vancomycin Resistant Staphylococcus aureus (VRSA); assay: Broth microdilution MIC/MBC, VRSA; type: cell-based; settings: for MBC / MIC: VRSA
Bacillus anthracis = assay: microbe, parasite or virus in culture; type: cell-based
B. licheniformis = assay: Broth microdilution MIC/MBC, B. licheniformis; type: cell-based; settings: Bacillus licheniformis; for MBC: read-out: MBC; for MIC: read-out: MIC
Clostridium difficile = assay: MIC against Clostridium difficile, anaerobic broth dilution; type: cell-based; settings: Clostridioides difficile
Outline: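 Clinical C. difficile isolates grown anaerobically 48 h at 37 °C, suspended to 0.5 McFarland and diluted 1:300 in pre-reduced supplemented Brain Heart Infusion broth. Compounds serially diluted; plates incubated anaerobically at 37 °C for 48 h. MIC = lowest concentration with no visible growth.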

Acinetobacter baumannii [4] = assay: Broth microdilution MIC, Acinetobacter baumannii; type: cell-based
MRSA USA300 = assay: MIC against MRSA USA300 with and without 4% human serum albumin; type: cell-based, Staphylococcus aureus; settings: Staphylococcus aureus, read-out: MIC against MRSA USA300
Outline: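 MIC measured in tryptic soy broth spiked with 4% HSA and without it, using CLSI broth microdilution on MRSA USA300. Value reported is the lowest concentration preventing bacterial growth.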

Acinetobacter baumannii [5] = assay: MIC with/without PMBN, Acinetobacter baumannii; type: cell-based
Outline: (§1)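 Sub-MIC colistin or PMBN added to broth MIC tests of rhodanines and reference antibiotics against Gram-negative strains; AcrAB efflux-deficient E. coli SM1411ΔacrAB also tested.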

Salmonella Typhimurium = assay: MIC with/without PMBN, Salmonella Typhimurium; type: cell-based
Outline: as §1

Klebsiella pneumoniae = assay: MIC with/without PMBN, Klebsiella pneumoniae; type: cell-based
Outline: as §1

[6] = E. faecalis NR31972 Strain SF 28073
[7] = NCIB9375, B. licheniformis Gibson 46 (NCIB 9375) NR-2494
[8] = NRS712, B. licheniformis NRS 712 NR-2499

O=C(O)[C@@H](Cc1ccccc1)N1C(=O)/C(=C/c2cccc(Oc3ccc(F)cc3)c2)SC1=S [Rh 4]
>128 µM: MIC (Salmonella Typhimurium; Salmonella Typhimurium ATCC 700720, PMBN (+) 4 μg/mL, read-out: MIC)
4 µM: MBC (Bacillus anthracis; Bacillus anthracis AMES35) | MIC (Bacillus anthracis; Bacillus anthracis AMES35) | MBC (Bacillus anthracis; Bacillus anthracis UM23) | MIC (Bacillus anthracis; Bacillus anthracis UM23) | MBC (Bacillus anthracis; Bacillus anthracis Weybridge) | MIC (Bacillus anthracis; Bacillus anthracis Weybridge) | MIC (Clostridium difficile; C. difficile HM-88) | MIC (Clostridium difficile; C. difficile Toxigenic Strain P8 NR-32888)
32 µM: MBC ([1]; E. faecalis ERV103 HM-934) | MIC ([1]; E. faecalis ERV103 HM-934) | MBC [1, 6] | MIC [1, 6] | MBC ([1]; E. faecalis R712 HM-335) | MBC ([1]; E. faecalis S613 HM-334) | MIC ([1]; E. faecalis S613 HM-334) | MBC ([1]; E. faecalis TX0104 HM-201) | MIC ([1]; E. faecalis TX0104 HM-201) | MIC90 ([2]; VRE, read-out: MIC 90) | MIC50 ([2]; read-out: MIC 50) | MBC ([3]; VRSA 3a, read-out: MBC) | MBC ([3]; VRSA 5, read-out: MBC) | MBC ([3]; VRSA 6, read-out: MBC) | MBC ([3]; VRSA 7, read-out: MBC) | MBC ([3]; VRSA 8, read-out: MBC) | MBC ([3]; VRSA 9, read-out: MBC) | MIC ([3]; VRSA 9, read-out: MIC) | MBC ([3]; VRSA 10, read-out: MBC)
64 µM: MBC ([3]; VRSA 1, read-out: MBC) | MBC ([3]; VRSA 4, read-out: MBC) | MBC ([3]; VRSA 11a, read-out: MBC) | MBC ([3]; VRSA 11b, read-out: MBC) | MBC ([3]; VRSA 12, read-out: MBC) | MBC ([3]; VRSA 13, read-out: MBC)
> 128 µM: MIC (Acinetobacter baumannii [4]; ATCC13345) | MIC (Acinetobacter baumannii [4]; ATCC17786) | MIC (Acinetobacter baumannii [5]; Acinetobacter baumannii, ATCCBAA747) | MIC (Acinetobacter baumannii [5]; Acinetobacter baumannii, ATCCBAA19606) | MIC (Salmonella Typhimurium; Salmonella enterica, ATCC 700720 / TYPHIMURIUM) | MIC (Klebsiella pneumoniae; Klebsiella pneumoniae, BAA1706) | MIC (Klebsiella pneumoniae; Klebsiella pneumoniae, BAA2146)
> 64 µM: MIC (MRSA USA300; 24 h, Media TSB + 4% HSA)
>64 µM: MIC (Acinetobacter baumannii [5]; Acinetobacter baumannii ATCC BAA747, PMBN (+) 4 μg/mL, read-out: MIC) | MIC (Acinetobacter baumannii [5]; Acinetobacter baumannii ATCC BAA19606, PMBN (+) 4 μg/mL, read-out: MIC) | MIC (Klebsiella pneumoniae; Klebsiella pneumoniae ATCC BAA 1706, PMBN (+) 4 μg/mL) | MIC (Klebsiella pneumoniae; Klebsiella pneumoniae ATCC BAA 2146, PMBN (+) 4 μg/mL)
2 µM: MIC (Clostridium difficile; C. difficile HM-745) | MIC (Clostridium difficile; C. difficile HM-746) | MIC (Clostridium difficile; C. difficile Isolate-1 NR-13427)
16 µM: MIC ([1]; E. faecalis R712 HM-335) | MIC50 ([3]; 15 VRSA strains, read-out: MIC 50) | MIC90 ([3]; 15 VRSA strains, read-out: MIC 90) | MIC ([3]; VRSA 1, read-out: MIC) | MBC ([3]; VRSA 2, read-out: MBC) | MIC ([3]; VRSA 2, read-out: MIC) | MIC ([3]; VRSA 3a, read-out: MIC) | MBC ([3]; VRSA 3b, read-out: MBC) | MIC ([3]; VRSA 3b, read-out: MIC) | MIC ([3]; VRSA 4, read-out: MIC) | MIC ([3]; VRSA 5, read-out: MIC) | MIC ([3]; VRSA 6, read-out: MIC) | MIC ([3]; VRSA 7, read-out: MIC) | MIC ([3]; VRSA 8, read-out: MIC) | MIC ([3]; VRSA 10, read-out: MIC) | MIC ([3]; VRSA 11a, read-out: MIC) | MIC ([3]; VRSA 11b, read-out: MIC) | MIC ([3]; VRSA 12, read-out: MIC) | MIC ([3]; VRSA 13, read-out: MIC) | MBC (B. licheniformis; [7]) | MIC (B. licheniformis; [7]) | MBC (B. licheniformis; [8]) | MIC (B. licheniformis; [8]) | MIC (MRSA USA300; Media TSB)
